Laboratory results published in patent US20170354655A1, “TLR INHIBITOR AND BRUTON'S TYROSINE KINASE INHIBITOR COMBINATIONS” (Pharmacyclics LLC, priority 2014, published 2017).

How the values were obtained:
Assay type in all cases: cell-based
HBL1 cells = assay: Combined drug treatment, CellTiter-Glo cell viability assay in HBL1 cell line
Experimental: (§1) A 40 μL aliquot of CellTiter-Glo® reagent was added directly into each well of the 96-W plate. The plate was then shaken on a Shaker (Labsystem Wellmix) at speed 5 for 10-20 min at room temperature. Next, about 100 μL of the mixed medium was transferred to a white, non-transparent, flat bottom 96-W plate for assaying. A Flexstation 3 luminometer was used for detecting and measuring the luminescent signals. Measurements were taken at room temperature.
(§2) The luminescent measurements were subsequently processed and analyzed using CalcuSyn (CI) and Chalice Analyzer (synergy score). […] In general, the resulting combination index (CI) obtained from the Chou-Talalay method defines quantitatively for additive effect (CI=1), synergism (CI<1), and antagonism (CI>1) in drug combinations. […] Biotechnol.
(§3) Cell growth effects were determined by the CellTiter-Glo® luminescent cell viability assay (Promega). The combination index (C.I.), a drug interactivity measurement was calculated with Calcusyn. Synergy scores were calculated by the Chalice Analyzer (Horizon CombinatoRx). ApoDETECT Annexin V-FITC Kit was used to detect apoptotic cell population. LC3B antibody (Cell Signaling) was used for Western blot analysis to detect autophagic marker LC3B-II. HBL-1 cells were plated in MethoCult (StemCell Technologies) and number of colonies was counted 7 days after drug treatment to determine the effect on colony formation. TLR related gene expression was determined by using RT^2 Profiler PCR Array (Qiagen).

OCI-LY10 cells = assay: Combined drug treatment, CellTiter-Glo cell viability assay in OCI-LY10 cell line; details: for synergy score for the chloroquine/ibrutinib combination: LY10 cells
Experimental: as §1, §2, §3

TMD8 cells = assay: Combined drug treatment, CellTiter-Glo cell viability assay in TMD8 cell line; details: for luminescent signal (CellTiter-Glo): test ODN 1 μM or chloroquine 10 μM, 3 days; for average CI value for the ibrutinib and chloroquine combination: CalcuSyn; for synergy score for the ibrutinib and chloroquine combination: Chalice Analyzer
Experimental: 200 μl of TMD8 wt cells (1.0×10^4 cells) at 5.0×10^4 cells/ml was plated into each well of a 96-well plate. The cells were grown in RPMI-10P medium.
The TLR9 antagonists used for this experiment included ODN 4084-F, ODN INH-1, ODN INH-18, and ODN TTAGGG. […] The TLR9 agonists used for this experiment included ODN 2006, ODN 2216, and ODN 2395. The TLR9 agonists were used to stimulate TLR signaling. Chloroquine is a non-specific TLR antagonist.
The stock solutions for the TLR9 antagonists and the TLR9 agonists were each prepared at 500 μM concentration. The stock solution for chloroquine diphosphate was prepared at 50 mM concentration.
The 96-W plate was then incubated for 3 days. Cell viability was examined using a CellTiter-Glo® assay.
as §1
CellTiter-Glo® reagents were thawed prior to use. Cells pre-plated onto a second 96-W plate and incubated at room temperature for 30 minutes were used for calibration purposes.
The luminescent measurements were subsequently processed and analyzed using CalcuSyn (CI) and Chalice Analyzer (synergy score). CalcuSyn performs the multiple drug dose-effect calculations using the Median Effect methods described by T-C Chou and P. Talalay in “Analysis of combined drug effects: a new look at a very old problem,” Trends Pharmacol. Sci. 4:450-454 (1983). In general, the resulting combination index (CI) obtained from the Chou-Talalay method defines quantitatively for additive effect (CI=1), synergism (CI<1), and antagonism (CI>1) in drug combinations. […] Biotechnol. 27(7):659-666 (2009).
as §3

CCN(CC)CCCC(C)Nc1ccnc2cc(Cl)ccc12 (stereo not shown) [Chloroquine, chloroquine]
synergy with ibrutinib (in words) (HBL1 cells): Synergy was observed | CI value for the chloroquine/ibrutinib combination (HBL1 cells; with agonist ODN2216): 0.35 | synergy score for the chloroquine/ibrutinib combination (HBL1 cells; with agonist ODN2216): 3.5 | CI value for the chloroquine/ibrutinib combination (HBL1 cells; without agonist ODN2216): 0.56 | synergy score for the chloroquine/ibrutinib combination (HBL1 cells; without agonist ODN2216): 3.03 | CI value for the chloroquine/ibrutinib combination (OCI-LY10 cells; LY10, with agonist ODN2216): 0.59 | CI value for the chloroquine/ibrutinib combination (OCI-LY10 cells; LY10, without agonist ODN2216): 0.50 | synergy score for the chloroquine/ibrutinib combination (OCI-LY10 cells; with agonist ODN2216): 2.63 | synergy score for the chloroquine/ibrutinib combination (OCI-LY10 cells; without agonist ODN2216): 2.44 | synergy with ibrutinib (in words) (OCI-LY10 cells; OCI-LY10 cells): Synergy was observed | luminescent signal (CellTiter-Glo) (TMD8 cells; Control (no TLR9 agonist), ibrutinib 0 nM): 275515 | luminescent signal (CellTiter-Glo) (TMD8 cells; Control (no TLR9 agonist), ibrutinib 0.0003 nM): 264724 | luminescent signal (CellTiter-Glo) (TMD8 cells; Control (no TLR9 agonist), ibrutinib 0.0013 nM): 265058 | luminescent signal (CellTiter-Glo) (TMD8 cells; Control (no TLR9 agonist), ibrutinib 0.0064 nM): 271348 | luminescent signal (CellTiter-Glo) (TMD8 cells; Control (no TLR9 agonist), ibrutinib 0.032 nM): 276679 | luminescent signal (CellTiter-Glo) (TMD8 cells; Control (no TLR9 agonist), ibrutinib 0.16 nM): 250469 | luminescent signal (CellTiter-Glo) (TMD8 cells; Control (no TLR9 agonist), ibrutinib 0.8 nM): 177291 | luminescent signal (CellTiter-Glo) (TMD8 cells; Control (no TLR9 agonist), ibrutinib 4 nM): 86168 | luminescent signal (CellTiter-Glo) (TMD8 cells; Control (no TLR9 agonist), ibrutinib 20 nM): 78916 | luminescent signal (CellTiter-Glo) (TMD8 cells; Control (no TLR9 agonist), ibrutinib 100 nM): 61700 | luminescent signal (CellTiter-Glo) (TMD8 cells; TLR9 agonist ODN 2006 1 μM, ibrutinib 0 nM): 275829 | luminescent signal (CellTiter-Glo) (TMD8 cells; TLR9 agonist ODN 2006 1 μM, ibrutinib 0.0003 nM): 258871 | luminescent signal (CellTiter-Glo) (TMD8 cells; TLR9 agonist ODN 2006 1 μM, ibrutinib 0.0013 nM): 250534 | luminescent signal (CellTiter-Glo) (TMD8 cells; TLR9 agonist ODN 2006 1 μM, ibrutinib 0.0064 nM): 249082 | luminescent signal (CellTiter-Glo) (TMD8 cells; TLR9 agonist ODN 2006 1 μM, ibrutinib 0.032 nM): 239360 | luminescent signal (CellTiter-Glo) (TMD8 cells; TLR9 agonist ODN 2006 1 μM, ibrutinib 0.16 nM): 247058 | luminescent signal (CellTiter-Glo) (TMD8 cells; TLR9 agonist ODN 2006 1 μM, ibrutinib 0.8 nM): 138546 | luminescent signal (CellTiter-Glo) (TMD8 cells; TLR9 agonist ODN 2006 1 μM, ibrutinib 4 nM): 79843 | luminescent signal (CellTiter-Glo) (TMD8 cells; TLR9 agonist ODN 2006 1 μM, ibrutinib 20 nM): 67694 | luminescent signal (CellTiter-Glo) (TMD8 cells; TLR9 agonist ODN 2006 1 μM, ibrutinib 100 nM): 62288 | luminescent signal (CellTiter-Glo) (TMD8 cells; TLR9 agonist ODN 2216 1 μM, ibrutinib 0 nM): 203015 | luminescent signal (CellTiter-Glo) (TMD8 cells; TLR9 agonist ODN 2216 1 μM, ibrutinib 0.0003 nM): 193567 | luminescent signal (CellTiter-Glo) (TMD8 cells; TLR9 agonist ODN 2216 1 μM, ibrutinib 0.0013 nM): 229545 | luminescent signal (CellTiter-Glo) (TMD8 cells; TLR9 agonist ODN 2216 1 μM, ibrutinib 0.0064 nM): 200219 | luminescent signal (CellTiter-Glo) (TMD8 cells; TLR9 agonist ODN 2216 1 μM, ibrutinib 0.032 nM): 199458 | luminescent signal (CellTiter-Glo) (TMD8 cells; TLR9 agonist ODN 2216 1 μM, ibrutinib 0.16 nM): 207276 | luminescent signal (CellTiter-Glo) (TMD8 cells; TLR9 agonist ODN 2216 1 μM, ibrutinib 0.8 nM): 115898 | luminescent signal (CellTiter-Glo) (TMD8 cells; TLR9 agonist ODN 2216 1 μM, ibrutinib 4 nM): 65959 | luminescent signal (CellTiter-Glo) (TMD8 cells; TLR9 agonist ODN 2216 1 μM, ibrutinib 20 nM): 48838 | luminescent signal (CellTiter-Glo) (TMD8 cells; TLR9 agonist ODN 2216 1 μM, ibrutinib 100 nM): 44662 | luminescent signal (CellTiter-Glo) (TMD8 cells; TLR9 agonist ODN 2395 1 μM, ibrutinib 0 nM): 170080 | luminescent signal (CellTiter-Glo) (TMD8 cells; TLR9 agonist ODN 2395 1 μM, ibrutinib 0.0003 nM): 168027 | luminescent signal (CellTiter-Glo) (TMD8 cells; TLR9 agonist ODN 2395 1 μM, ibrutinib 0.0013 nM): 177301 | luminescent signal (CellTiter-Glo) (TMD8 cells; TLR9 agonist ODN 2395 1 μM, ibrutinib 0.0064 nM): 170957 | luminescent signal (CellTiter-Glo) (TMD8 cells; TLR9 agonist ODN 2395 1 μM, ibrutinib 0.032 nM): 167073 | luminescent signal (CellTiter-Glo) (TMD8 cells; TLR9 agonist ODN 2395 1 μM, ibrutinib 0.16 nM): 156507 | luminescent signal (CellTiter-Glo) (TMD8 cells; TLR9 agonist ODN 2395 1 μM, ibrutinib 0.8 nM): 100658 | luminescent signal (CellTiter-Glo) (TMD8 cells; TLR9 agonist ODN 2395 1 μM, ibrutinib 4 nM): 69482 | luminescent signal (CellTiter-Glo) (TMD8 cells; TLR9 agonist ODN 2395 1 μM, ibrutinib 20 nM): 59032 | luminescent signal (CellTiter-Glo) (TMD8 cells; TLR9 agonist ODN 2395 1 μM, ibrutinib 100 nM): 55950 | synergy with ibrutinib (in words) (TMD8 cells; TMD8 cells, whether or not TLR agonist was present): Synergy was observed | average CI value for the ibrutinib and chloroquine combination (TMD8 cells; TMD8 cells, with agonists): 0.11 | synergy score for the ibrutinib and chloroquine combination (TMD8 cells; TMD8 cells, with agonists): 4.22 | average CI value for the ibrutinib and chloroquine combination (TMD8 cells; TMD8 cells, without agonists): 0.40 | synergy score for the ibrutinib and chloroquine combination (TMD8 cells; TMD8 cells, without agonists): 3.48
